Several values for one entry are separate records, joined by “and”; a condition that tells them apart may be missing. Identical values can stand only once.
Tested on: 996289-038-R-J1-PDC spheroid viability
Test: Anticancer human tumor 996289-038-R-J1-PDC patient-derived colon adenocarcinoma cell line growth inhibition [PI3K]
Details: spheroids with HUVEC and MSC; for viability, T/C: stronger effect = lower value
Excerpt: Combinatorial screen of targeted agents with the PI3K inhibitors inavolisib, alpelisib, duvelisib, and copanlisib in multi-cell type tumor spheroids
A high-throughput screen of multi-cell type tumor spheroids was designed to identify active combinations of targeted small molecules and PI3K pathway inhibitors. Complex spheroids include a stromal component modeled by human endothelial cells (HUVEC) and fibroblasts modeled by human mesenchymal stem cells (MSCs). The concentration ranges selected for each drug and investigational agent were based upon clinically achievable concentrations if the clinical Cmax of the agent was known.
Compounds. The drugs and investigational agents: inavolisib (NSC800729), alpelisib (NSC765974), duvelisib (NSC772469), copanlisib (NSC816437), ipatasertib (NSC767898), afuresertib (NSC778305), talazoparib (NSC767125), sapanisertib (NSC764658), selumetinib (NSC741078), tovorafenib (DAY101, NSC766906), vemurafenib (NSC761431), ravoxertinib (NSC781343), sotorasib (NSC818433), MRTX1133 (NSC 836407), abemaciclib (NSC 768073), palbociclib (NSC758247), venetoclax (NSC 766270), SY5609 (NSC837396), enzalutamide (NSC755605), and darolutamide (NSC825331), were obtained from the National Cancer Institute (NCI) Developmental Therapeutics Program Chemical Repository. The FDA-approved anticancer drug set is available from the NCI Developmental Therapeutics Program. […] The stock solutions were prepared in dimethyl sulfoxide (DMSO, Sigma-Aldrich, St. Louis, MO, cat. D2650) at 800-fold the tested concentration and stored at -70 degrees C prior to their use. All drugs and investigational agents were tested over a range starting from a high concentration at or near the clinical Cmax and decreasing in half-log increments. If the clinical Cmax for an agent had not been determined, the highest concentration tested was 10 microM.
Cell Culture. All cells were maintained in an incubator at 37 degrees C and 5% CO2 with 95% humidity. The PDC lines were cultured according to standard operating procedures established by the NCI PDMR (https://pdmr.cancer.gov/sops/default.htm). All PDCs were thawed and cultured in Matrigel-coated flasks prepared with a working solution of 1X Ham's F-12 nutrient mix, without supplementation (Invitrogen, Waltham, MA, cat. 11765054), 100 U/mL penicillin-streptomycin (Invitrogen, cat. 15140122), and 2.5% Matrigel (Corning Inc., Corning, NY, cat. 354248) for the first three passages. The 354836-022-R-J1-PDC, 475296-252-R-J1-PDC, and 997726-040-R-J2-PDC lines were cultured in 6A media, which includes advanced DMEM/F-12 (Thermo Fisher Scientific, cat. 12634028), 10 mM HEPES (Thermo Fisher Scientific, cat. 15630080), 1X GlutaMAX supplement (Thermo Fisher Scientific, cat. 35050061), 0.1 mg/mL primocin (InvivoGen, San Diego, CA, cat. ant-pm-2), 10% defined fetal bovine serum, heat inactivated (HyClone Laboratories Inc., Logan, UT, cat. SH30070.03HI), 50% L-WRN conditioned media (ATCC, cat. CRL-3276), 1.25 mM N-Acetyl-L-cysteine (Sigma-Aldrich, cat. A9165), 10 mM nicotinamide (Sigma-Aldrich, cat. N0636), 1X B-27 supplement (Thermo Fisher Scientific, cat. 17504044), 1X N-2 supplement (Thermo Fisher Scientific, cat. 17502048), and 10 microM Y-27632 dihydrochloride (Tocris Bioscience, Bristol, United Kingdom, cat. 1254). The 624824-186-R-J2-PDC line was cultured in 6C/Colon 1B media, which includes all 6A media components plus 50 ng/mL human EGF recombinant protein (Thermo Fisher Scientific, cat. PHG0311). […]
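Also: spheroids exposed to compounds for seven days before viability read.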
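For viability, T/C in this document: luminescence used as a proxy for viable cell amount; percent viability relative to DMSO vehicle control as 100%.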

With `CNC(=O)c1ccc(N2C(=S)N(c3ccc(C#N)c(C(F)(F)F)c3)C(=O)C2(C)C)cc1F` as the compound, how does the viability, T/C (compound 0.0316 µM) read?
The viability, T/C was 111% and 106% (2×) and 100%.

What about the viability, T/C (compound 0.1 µM) of the same compound?
Its viability, T/C is 97% [middle of 4 runs].

And the viability, T/C (compound 0.316 µM)?
The viability, T/C was 111% [middle of 4 runs].

And the viability, T/C (compound 1 µM)?
The viability, T/C was 113% [middle of 4 runs].

And the IC50 (curve of compound)?
Its IC50 is greater than 10 µM.

How did the IC50 (curve of first compound, second compound 0.00316 µM) turn out when `C=CC(=O)N1CCN(c2nc(=O)n(-c3c(C)ccnc3C(C)C)c3nc(-c4c(O)cccc4F)c(F)cc23)C(C)C1` (configuration not stated) + CC(Nc1ccc2c(c1)OCCn1cc(N3C(=O)OCC3C(F)F)nc1-2)C(N)=O was run?
The IC50 was greater than 10 µM.

And the IC50 (curve of first compound, second compound 0.01 µM)?
Its IC50 is greater than 10 µM.

What about the IC50 (curve of first compound, second compound 0.0316 µM) of the same compound?
The IC50 was greater than 10 µM.

What about the IC50 (curve of first compound, second compound 0.1 µM) of the same compound?
The IC50 was greater than 10 µM.

What about the IC50 (curve of first compound, second compound 0.316 µM) of the same compound?
Its IC50 is greater than 10 µM.

And the IC50 (curve of first compound, second compound 1 µM)?
Its IC50 is greater than 10 µM.

And the viability, T/C (second compound 0.00316 µM, first compound 0.0316 µM)?
Its viability, T/C is 91.2%.

What about the viability, T/C (second compound 0.00316 µM, first compound 0.1 µM) of the same compound?
Its viability, T/C is 92.7%.

And the viability, T/C (second compound 0.00316 µM, first compound 0.316 µM)?
The viability, T/C was 106%.

What about the viability, T/C (second compound 0.00316 µM, first compound 1 µM) of the same compound?
The viability, T/C was 112%.

And the viability, T/C (second compound 0.00316 µM, first compound 3.16 µM)?
Its viability, T/C is 113%.

What about the viability, T/C (second compound 0.00316 µM, first compound 10 µM) of the same compound?
Its viability, T/C is 106%.

And the viability, T/C (second compound 0.01 µM, first compound 0.0316 µM)?
Its viability, T/C is 97.8%.

What about the viability, T/C (second compound 0.01 µM, first compound 0.1 µM) of the same compound?
The viability, T/C was 96.7%.

And the viability, T/C (second compound 0.01 µM, first compound 0.316 µM)?
The viability, T/C was 112%.

And the viability, T/C (second compound 0.01 µM, first compound 1 µM)?
The viability, T/C was 100%.

And the viability, T/C (second compound 0.01 µM, first compound 3.16 µM)?
The viability, T/C was 118%.

And the viability, T/C (second compound 0.01 µM, first compound 10 µM)?
Its viability, T/C is 118%.

And the viability, T/C (second compound 0.0316 µM, first compound 0.0316 µM)?
Its viability, T/C is 88.7%.

And the viability, T/C (second compound 0.0316 µM, first compound 0.1 µM)?
Its viability, T/C is 106%.

What about the viability, T/C (second compound 0.0316 µM, first compound 0.316 µM) of the same compound?
The viability, T/C was 95.3%.

And the viability, T/C (second compound 0.0316 µM, first compound 1 µM)?
Its viability, T/C is 105%.

What about the viability, T/C (second compound 0.0316 µM, first compound 3.16 µM) of the same compound?
The viability, T/C was 97.3%.

What about the viability, T/C (second compound 0.0316 µM, first compound 10 µM) of the same compound?
The viability, T/C was 98.8%.

What about the viability, T/C (second compound 0.1 µM, first compound 0.0316 µM) of the same compound?
The viability, T/C was 87.5%.

What about the viability, T/C (second compound 0.1 µM, first compound 0.1 µM) of the same compound?
The viability, T/C was 81.9%.

And the viability, T/C (second compound 0.1 µM, first compound 0.316 µM)?
Its viability, T/C is 87.8%.

What about the viability, T/C (second compound 0.1 µM, first compound 1 µM) of the same compound?
Its viability, T/C is 98.9%.

And the viability, T/C (second compound 0.1 µM, first compound 3.16 µM)?
The viability, T/C was 85.4%.

And the viability, T/C (second compound 0.1 µM, first compound 10 µM)?
Its viability, T/C is 83%.

And the viability, T/C (second compound 0.316 µM, first compound 0.0316 µM)?
Its viability, T/C is 79.4%.

And the viability, T/C (second compound 0.316 µM, first compound 0.1 µM)?
The viability, T/C was 67.7%.

And the viability, T/C (second compound 0.316 µM, first compound 0.316 µM)?
The viability, T/C was 75.1%.

And the viability, T/C (second compound 0.316 µM, first compound 1 µM)?
The viability, T/C was 80.9%.

And the viability, T/C (second compound 0.316 µM, first compound 3.16 µM)?
Its viability, T/C is 77.1%.

What about the viability, T/C (second compound 0.316 µM, first compound 10 µM) of the same compound?
The viability, T/C was 77.7%.

And the viability, T/C (second compound 1 µM, first compound 0.0316 µM)?
Its viability, T/C is 82.2%.

What about the viability, T/C (second compound 1 µM, first compound 0.1 µM) of the same compound?
Its viability, T/C is 50.2%.

And the viability, T/C (second compound 1 µM, first compound 0.316 µM)?
Its viability, T/C is 60.2%.

And the viability, T/C (second compound 1 µM, first compound 1 µM)?
The viability, T/C was 59.1%.

And the viability, T/C (second compound 1 µM, first compound 3.16 µM)?
The viability, T/C was 62.6%.

What about the viability, T/C (second compound 1 µM, first compound 10 µM) of the same compound?
The viability, T/C was 67.7%.
